Each compound was assayed on bacterial strain LF82 binding to the glycoprotein BSA-(Mannose)3 (assay: Bacterial Binding Assay (BBA)). Conditions: read-out: Bacterial Binding Assay IC50, LF82/Luciferase strain binding to BSA-(Man)3 coated plates, luminescence.
Type: cell-based, Escherichia coli
Excerpt: The purpose of the Bacterial Binding Assay (BBA) is to determine the inhibition activity of
selective FimH antagonists on the bacterial strain LF82 binding to the glycoprotein BSA-(Mannose)3.
Below is a list of the Materials used to run the BBA are described below. • 1. LB broth: Supplier: Gibco, #10855 • 2. D-PBS: Supplier: Wisent, #311-425-CL • 3. LB agar plates • 4. 96-well black plate (high binding): Supplier: Costar, #3925 • 5. TopSeal™-A adhesive sealing films; Supplier PerkinElmer, #6005185 • 6. Carbonate-bicarbonate buffer pH 9.6 tablets, Supplier: Medicago, #09-8922-24 • 7. Water, Supplier: Gibco, #15230-162 • 8. Bovine serum albumin (BSA): Supplier: Sigma, #A-7888 • 9. (Man)3-BSA (α1-3, α1-6 Mannotriose-BSA, 1 mg), V-Labs, #NGP1336, lot #HGDX37-169-1 • 10. Tween 20: Supplier: Sigma, #P9416 • 11. Bright-Glo Luciferase Assay System: Supplier: Promega, #E2610 • 12. LF82/Luciferase strain: Invasive ability of an Escherichia coli strain isolated from the ileal mucosa of a patient with Crohn ? disease. Boudeau J, Glasser A L, Masseret E, Joly B, Darfeuille-Michaud A, Infect Immun. 1999, 67(9), 4499-509
Solutions and buffers used to run the BBA are described below. • 1. 0.04M carbonate-bicarbonate buffer (coating buffer) • 2. 40 μg/mL BSA-(Man)3: Dissolve 1 mg of (Man)3-BSA in 25 mL of water. • 3. 4000 μg/mL BSA • 4. 40 μg/mL BSA • 5. 1 μg/mL BSA-(Man)3: 150 μL of 40 μg/mL BSA-(Man)3+5.85 mL of 40 μg/mL BSA • 6. 0.5 μg/mL BSA-(Man)3 in 0.02M carbonate-bicarbonate buffer. • 7. 20 μg/mL BSA in 0.02M carbonate-bicarbonate buffer • 8. Blocking buffer (2% BSA/DPBS): 1 g of BSA in 50 mL D-PBS • 9. 2× binding buffer (0.2% BSA/D-PBS): 5 mL of blocking buffer+45 mL D-PBS. • 10. Washing buffer (D-PBS/0.01% Tween 20): 10 μL of Tween 20 in 100 mL D-PBS. • 11. 1× Bright-Glo Luciferase substrate: Dilute 1:1 the Bright-Glo Luciferase Assay System with D-PBS The experimental protocol to run the BBA is described below.
Overnight culture of LF82/Luciferase strain: Into two Falcon 50 mL tubes, add 20 mL of LB+20 μL of 50 mg/mL Kanamycin and inoculate with a loop from glycerol stock of the LF82/Luciferase strain. Incubate overnight at 37° C. with no shaking.
Glycoprotein coating of 96-well plates: Add 100 μL/well of 0.5-2 μg/mL BSA-(Man)3. 20 μg/mL BSA is used as the control background. Seal plate using an adhesive sealing film and incubate overnight at room temperature. Wash the 96-well plate three times with 150 μL/well of D-PBS, add 170 μL/well of blocking solution and incubate 45 min (minimum) at room temperature.
Preparation of bacterial suspension: Mix the two cultures tubes (40 mL) and perform a 1:10 dilution in LB (900 μl LB+100 μl culture. Measure optical density (OD) of the bacterial cultures. OD1 ˜5×10^8 cells/mL. Centrifuge LF82 culture for 20 min at 3500 rpm at room temperature. Re-suspend bacterial pellet in D-PBS and centrifuge again for 20 min at 3500 rpm. Re-suspend bacterial pellet in D-PBS to obtain a bacterial concentration of 2×10^9 bacteria/mL. Dilute 1/10 in D-PBS to obtain a final bacterial concentration of 2×10^8 bacteria/mL (=107 bacteria/50 μL). Perform 1/10 serial dilutions in LB of each bacterial suspension, plate 10 μL of dilutions on LB agar plates (final dilutions of 10^−7) and incubate overnight at 37° C. and count CFUs to determine the actual bacteria density in the assay.
Bacterial binding assay: Add 147 μL 2× binding buffer to compound plate (containing 3 μL of compound). After blocking step is performed (at least 45 min), wash plates three times with 200 μL/well of D-PBS. With a 100 μL multichannel manual pipettor, add 50 µL/well of compound diluted in 2× binding buffer. With a 100 μL multichannel manual pipettor, add 50 μL/well of bacterial suspension. Agitate at slow speed for 1 min and incubate 40-75 min at room temperature. Wash 5 times with 150 μL/well of washing buffer and then once with D-PBS. Add 100 μL/well of 1× Bright-Glo Luciferase substrate. […]

| SMILES | IC50 |
| --- | --- |
| Cc1c(C)c(C#C[C@H]2O[C@H](CO)[C@@H](O)[C@H](O)[C@@H]2O)c(C)c(C)c1C#C[C@H]1O[C@H](CO)[C@@H](O)[C@H](O)[C@@H]1O [Compound 84, (2R,3S,4R,5S,6R)-2-(hydroxymethyl)-6-[2-[2,3,5,6-tetramethy1-4-[2-[(2R,3S,4R,5S,6R)-3,4,5-trihydroxy-6-(hydroxymethyl)tetrahydropyran-2-yl]ethynyl]phenyl]ethynyl]tetrahydropyran-3,4,5-triol] | 315 nM |
| OCc1cc(C#C[C@H]2O[C@H](CO)[C@@H](O)[C@H](O)[C@@H]2O)c(CO)cc1C#C[C@H]1O[C@H](CO)[C@@H](O)[C@H](O)[C@@H]1O [Compound 85, (2R,3S,4R,5S,6R)-2-[2-[2,5-bis(hydroxymethyl)-4-[2-[(2R,3S,4R,5S,6R)-3,4,5-trihydroxy-6-(hydroxymethyl)tetrahydropyran-2-yl]ethynyl]phenyl]ethynyl]-6-(hydroxymethyl)tetrahydropyran-3,4,5-triol] | 160 nM |
| CCc1cc(C#C[C@H]2O[C@H](CO)[C@@H](O)[C@H](O)[C@@H]2O)c(CC)cc1C#C[C@H]1O[C@H](CO)[C@@H](O)[C@H](O)[C@@H]1O [Compound 86, (2R,3S,4R,5S,6R)-2-[2-[2,5-diethyl-4-[2-[(2R,3S,4R,5S,6R)-3,4,5-trihydroxy-6-(hydroxymethyl)tetrahydropyran-2-yl]ethynyl]phenyl]ethynyl]-6-(hydroxymethyl)tetrahydropyran-3,4,5-triol] | 22 nM |
| OC[C@H]1O[C@H](C#Cc2ccc(C#C[C@H]3O[C@H](CO)[C@@H](O)[C@H](O)[C@@H]3O)c(OC(F)(F)F)c2)[C@@H](O)[C@@H](O)[C@@H]1O [Compound 87, (2R,3S,4R,5S,6R)-2-(hydroxymethyl)-6-[2-[3-(trifluoromethoxy)-4-[2-[(2R,3S,4R,5S,6R)-3,4,5-trihydroxy-6-(hydroxymethyl)tetrahydropyran-2-yl]ethynyl]phenyl]ethynyl]tetrahydropyran-3,4,5-triol] | 17 nM |
| OC[C@H]1O[C@H](C#Cc2cc(F)c(C#C[C@H]3O[C@H](CO)[C@@H](O)[C@H](O)[C@@H]3O)cc2F)[C@@H](O)[C@@H](O)[C@@H]1O [Compound 88, (2R,3S,4R,5S,6R)-2-[2-[2,5-difluoro-4-[2-[(2R,3S,4R,5S,6R)-3,4,5-trihydroxy-6-(hydroxymethyl)tetrahydropyran-2-yl]ethynyl]phenyl]ethynyl]-6-(hydroxymethyl)tetrahydropyran-3,4,5-triol] | 132 nM |
| COCc1cc(C#C[C@H]2O[C@H](CO)[C@@H](O)[C@H](O)[C@@H]2O)c(COC)cc1C#C[C@H]1O[C@H](CO)[C@@H](O)[C@H](O)[C@@H]1O [Compound 89, (2R,3S,4R,5S,6R)-2-[2-[2,5-bis(methoxymethyl)-4-[2-[(2R,3S,4R,5S,6R)-3,4,5-trihydroxy-6-(hydroxymethyl)tetrahydropyran-2-yl]ethynyl]phenyl]ethynyl]-6-(hydroxymethyl)tetrahydropyran-3,4,5-triol] | 82 nM |
| Cc1cc(C#C[C@H]2O[C@H](CO)[C@@H](O)[C@H](O)[C@@H]2O)c(Cl)cc1C#C[C@H]1O[C@H](CO)[C@@H](O)[C@H](O)[C@@H]1O [Compound 90, (2R,3S,4R,5S,6R)-2-[2-[2-chloro-5-methy1-4-[2-[(2R,3S,4R,5S,6R)-3,4,5-trihydroxy-6-(hydroxymethyl)tetrahydropyran-2-yl]ethynyl]phenyl]ethynyl]-6-(hydroxymethyl)tetrahydropyran-3,4,5-triol] | 36 nM |
| OC[C@H]1O[C@H](C#Cc2ccc(C#C[C@H]3O[C@H](CO)[C@@H](O)[C@H](O)[C@@H]3O)c(C(F)(F)F)c2)[C@@H](O)[C@@H](O)[C@@H]1O [Compound 91, (2R,3S,4R,5S,6R)-2-(hydroxymethyl)-6-[2-[3-(trifluoromethyl)-4-[2-[(2R,3S,4R,5S,6R)-3,4,5-trihydroxy-6-(hydroxymethyl)tetrahydropyran-2-yl]ethynyl]phenyl]ethynyl]tetrahydropyran-3,4,5-triol] | 58 nM |
| OC[C@H]1O[C@H](C#Cc2ccc(C#C[C@H]3O[C@H](CO)[C@@H](O)[C@H](O)[C@@H]3O)c(OC(F)F)c2)[C@@H](O)[C@@H](O)[C@@H]1O [Compound 92, (2R,3S,4R,5S,6R)-2-[2-[3-(difluoromethoxy)-4-[2-[(2R,3S,4R,5S,6R)-3,4,5-trihydroxy-6-(hydroxymethyl)tetrahydropyran-2-yl]ethynyl]phenyl]ethynyl]-6-(hydroxymethyl)tetrahydropyran-3,4,5-triol] | 36 nM |
| OC[C@H]1O[C@H](C#Cc2cc(F)c(C#C[C@H]3O[C@H](CO)[C@@H](O)[C@H](O)[C@@H]3O)c(F)c2)[C@@H](O)[C@@H](O)[C@@H]1O [Compound 93, (2R,3S,4R,5S,6R)-2-[2-[3,5-difluoro-4-[2-[(2R,3S,4R,5S,6R)-3,4,5-trihydroxy-6-(hydroxymethyl)tetrahydropyran-2-yl]ethynyl]phenyl]ethynyl]-6-(hydroxymethyl)tetrahydropyran-3,4,5-triol] | 88 nM |
| OCCc1cc(C#C[C@H]2O[C@H](CO)[C@@H](O)[C@H](O)[C@@H]2O)ccc1C#C[C@H]1O[C@H](CO)[C@@H](O)[C@H](O)[C@@H]1O [Compound 94, (2R,3S,4R,5S,6R)-2-[2-[3-(2-hydroxyethyl)-4-[2-[(2R,3S,4R,5S,6R)-3,4,5-trihydroxy-6-(hydroxymethyl)tetrahydropyran-2-yl]ethynyl]phenyl]ethynyl]-6-(hydroxymethyl)tetrahydropyran-3,4,5-triol] | 20 nM |
| OCc1cc(C#C[C@H]2O[C@H](CO)[C@@H](O)[C@H](O)[C@@H]2O)ccc1C#C[C@H]1O[C@H](CO)[C@@H](O)[C@H](O)[C@@H]1O [Compound 95, (2R,3S,4R,5S,6R)-2-(hydroxymethyl)-6-[2-[3-(hydroxymethyl)-4-[2-[(2R,3S,4R,5S,6R)-3,4,5-trihydroxy-6-(hydroxymethyl)tetrahydropyran-2-yl]ethynyl]phenyl]ethynyl]tetrahydropyran-3,4,5-triol] | 38 nM |
| COc1cc(C#C[C@H]2O[C@H](CO)[C@@H](O)[C@H](O)[C@@H]2O)c(OC)cc1C#C[C@H]1O[C@H](CO)[C@@H](O)[C@H](O)[C@@H]1O [Compound 96, (2R,3S,4R,5S,6R)-2-[2-[2,5-dimethoxy-4-[2-[(2R,3S,4R,5S,6R)-3,4,5-trihydroxy-6-(hydroxymethyl)tetrahydropyran-2-yl]ethynyl]phenyl]ethynyl]-6-(hydroxymethyl)tetrahydropyran-3,4,5-triol] | 66 nM |
| Cc1cc(C#C[C@H]2O[C@H](CO)[C@@H](O)[C@H](O)[C@@H]2O)c(C)cc1C#C[C@H]1O[C@H](CO)[C@@H](O)[C@H](O)[C@@H]1O [Compound 97, (2R,3S,4R,5S,6R)-2-[2-[2,5-dimethy1-4-[2-[(2R,3S,4R,5S,6R)-3,4,5-trihydroxy-6-(hydroxymethyl)tetrahydropyran-2-yl]ethynyl]phenyl]ethynyl]-6-(hydroxymethyl)tetrahydropyran-3,4,5-triol] | 24 nM |

Source: patent publication US11634447B2 (priority 2012, dated 2023)
